# According to patent US8916499B2, “Herbicidal compositions comprising 4-amino-3-chloro-5-fluoro-6-(4-chloro-2-fluoro-3-methoxyphenyl) pyridine-2-carboxylic acid or a derivative thereof and a protoporphyrinogen oxidase inhibitor” (Dow AgroSciences LLC, priority 2012, dated 2014):
# Several values for one entry are separate records, joined by “and”; a condition that tells them apart may be missing. Equal values may be shown once.
# Tests used:
# CYPIR = experiment: Postemergence foliar-applied weed control, direct seeded rice, greenhouse (Example I); format: in vivo, Cyperus iria L.
# ECHCO = experiment: as above; format: in vivo, Echinochloa colona (L.) Link
# IPOHE = experiment: as above; format: in vivo, Ipomoea hederacea Jacq.; details: g ae/ha Compound A Benzyl Ester+g ai/ha oxadiazon: r33 17.5+0, r34 0+250, r35 17.5+250
# ECHOR = experiment: In-water applied weed control, transplanted paddy rice, greenhouse (Example II); format: in vivo, Echinochloa oryzoides (Ard.) Fritsch
# LEFCH = experiment: as above; format: in vivo, Leptochloa chinensis (L.) Nees
# SCPMA = experiment: as above; format: in vivo
# SETVI = experiment: Pre-emergence soil-applied weed control, greenhouse (Example IV); format: in vivo, Setaria viridis (L.) Beauv.
# From the text: Seeds or nutlets of the desired test plant species were planted in a soil matrix prepared by mixing a loam soil (32 percent silt, 23 percent clay, and 45 percent sand, with a pH of about 6.5 and an organic matter content of about 1.9 percent) and calcareous grit in an 80 to 20 ratio. The soil matrix was contained in plastic pots with a volume of 1 quart and a surface area of 83.6 square centimeters (cm^2).
# Treatments consisted of the benzyl ester of 4-amino-3-chloro-5-fluoro-6-(4-chloro-2-fluoro-3-methoxy-phenyl)pyridine-2-carboxylic acid (compound A) formulated as an SC (suspension concentrate) and various herbicidal components alone and in combination. Forms of compound A were applied on an acid equivalent basis.
# Other herbicidal components were applied on an acid equivalent or active ingredient basis and included the protoporphyrinogen oxidase (PPO)-inhibiting herbicides, flumioxazin formulated as Payload® and oxadiazon formulated as Ronstar® 50W.
# Treatment requirements were calculated based upon the rates being tested, the concentration of active ingredient or acid equivalent in the formulation, and a 12 mL application volume at a rate of 187 L/ha.
# For treatments comprised of formulated compounds, measured amounts of compounds were placed individually in 25 mL glass vials and diluted in a volume of 1.25% (v/v) Agri-Dex® crop oil concentrate (COC) to obtain 12× stock solutions. […] Application solutions were prepared by adding an appropriate amount of each stock solution (e.g., 1 mL) and diluted to the appropriate final concentrations with the addition of 10 mL of an aqueous mixture of 1.25% (v/v) COC so that the final spray solutions contained 1.25% (v/v) COC. […]
# The treated and control pots were placed in a greenhouse and top watered as needed. […] After approximately 4 weeks, the condition of the test plants as compared with that of the untreated plants was determined visually and scored on a scale of 0 to 100 percent where 0 corresponds to no injury or growth inhibition and 100 corresponds to complete kill. […]
smiles,measurement,setting,value
"COc1c(Cl)ccc(-c2nc(C(=O)OCc3ccccc3)c(Cl)c(N)c2F)c1F [Compound A Benzyl Ester, benzyl ester of 4-amino-3-chloro-5-fluoro-6-(4-chloro-2-fluoro-3-methoxy-phenyl)pyridine-2-carboxylic acid]",Visual Weed Control (%) - 21 DAA CYPIR Obs,"CYPIR; g ae/ha Compound A Benzyl Ester+g ai/ha bifenox (Fox ®): r17 8+0, r18 0+180, r19 0+360, r20 0+720, r21 8+180, r22 8+360, r23 8+720",30%
same,Visual Weed Control (%) - 21 DAA CYPIR Obs,"CYPIR; g ae/ha Compound A Benzyl Ester+g ai/ha carfentrazone-ethyl: r11 8.75+0, r12 0+3.5, r13 0+7, r14 0+14, r15 8.75+3.5, r16 8.75+7, r17 8.75+14",85%
same,Visual Weed Control (%) - 21 DAA CYPIR Obs,"CYPIR; g ae/ha Compound A Benzyl Ester+g ai/ha oxyfluorfen (technical): r27 4.38+0, r28 0+90, r29 0+180, r30 0+360, r31 4.38+90, r32 4.38+180, r33 4.38+360",30%
same,Visual Weed Control (%) - 21 DAA CYPIR Obs,"CYPIR; g ae/ha Compound A Benzyl Ester+g ai/ha pyraflufen-ethyl: r17 8+0, r18 0+2.65, r19 0+5.3, r20 0+10.6, r21 8+2.65, r22 8+5.3, r23 8+10.6",35%
same,Visual Weed Control (%) - 20 DAA CYPIR Obs,"CYPIR; g ae/ha Compound A Benzyl Ester+g ai/ha saflufenacil: r38 4.38+0, r39 0+5, r40 0+10, r41 0+20, r42 4.38+5, r43 4.38+10, r44 4.38+20",70%
same,Visual Weed Control (%) - 21 DAA ECHCO Obs,"ECHCO; g ae/ha Compound A Benzyl Ester+g ai/ha acifluorfen sodium: r11 8+0, r12 0+140, r13 0+280, r14 8+140, r15 8+280",40%
same,Visual Weed Control (%) - 20 DAA ECHCO Obs,"ECHCO; g ae/ha Compound A Benzyl Ester+g ai/ha pyraclonil: r15 4.38+0, r16 0+33.75, r17 0+67.5, r18 0+135, r19 4.38+33.75, r20 4.38+67.5, r21 4.38+135",40%
same,Visual Weed Control (%) - 20 DAA ECHCO Obs,"ECHCO; g ae/ha Compound A Benzyl Ester+g ai/ha saflufenacil: r14 4.38+0, r15 8.75+0, r16 0+10, r17 0+20, r18 4.38+10, r19 8.75+10, r20 4.38+20, r21 8.75+20",60% and 80%
same,Visual Weed Control (%) - 21 DAA IPOHE Obs,IPOHE,10%
same,Visual Weed Control (%) - 20 DAA ECHOR Obs,ECHOR; 4.38 g ae/ha alone,10%
same,Visual Weed Control (%) - 21 DAA ECHOR Obs,ECHOR; 8 g ae/ha alone,20%
same,Visual Weed Control (%) - 20 DAA ECHOR Obs,ECHOR; 8.75 g ae/ha alone,15%
same,Visual Weed Control (%) - 21 DAA ECHOR Obs,ECHOR; 8.75 g ae/ha alone,25%
same,Visual Weed Control (%) - 21 DAA ECHOR Obs,ECHOR; 16 g ae/ha alone,45%
same,Visual Weed Control (%) - 21 DAA ECHOR Obs,ECHOR; 17.5 g ae/ha alone,60%
same,Visual Weed Control (%) - 21 DAA ECHOR Obs,ECHOR; 32 g ae/ha alone,60%
same,Visual Weed Control (%) - 20 DAA LEFCH Obs,LEFCH; 4.38 g ae/ha alone,0%
same,Visual Weed Control (%) - 20 DAA LEFCH Obs,LEFCH; 8.75 g ae/ha alone,20%
same,Visual Weed Control (%) - 20 DAA LEFCH Obs,LEFCH; 17.5 g ae/ha alone,30%
same,Visual Weed Control (%) - 21 DAA SCPMA Obs,SCPMA; 48 g ae/ha alone,0%
same,Visual Weed Control (%) - 21 DAA SCPMA Obs,SCPMA; 96 g ae/ha alone,0%
same,Visual Weed Control (%) - 28 DAA SETVI Obs,SETVI; 16 g ae/ha alone,10%
same,Visual Weed Control (%) - 28 DAA SETVI Obs,SETVI; 32 g ae/ha alone,10%
